Counter-ions that a name gives are not always drawn.
What follows are compounds tested against hERG (Homo sapiens, UniProt Q12809) (assay: cell-based). Details: (-LOG10(IC50), µM).
hERG, sequence (Q12809 whole entry): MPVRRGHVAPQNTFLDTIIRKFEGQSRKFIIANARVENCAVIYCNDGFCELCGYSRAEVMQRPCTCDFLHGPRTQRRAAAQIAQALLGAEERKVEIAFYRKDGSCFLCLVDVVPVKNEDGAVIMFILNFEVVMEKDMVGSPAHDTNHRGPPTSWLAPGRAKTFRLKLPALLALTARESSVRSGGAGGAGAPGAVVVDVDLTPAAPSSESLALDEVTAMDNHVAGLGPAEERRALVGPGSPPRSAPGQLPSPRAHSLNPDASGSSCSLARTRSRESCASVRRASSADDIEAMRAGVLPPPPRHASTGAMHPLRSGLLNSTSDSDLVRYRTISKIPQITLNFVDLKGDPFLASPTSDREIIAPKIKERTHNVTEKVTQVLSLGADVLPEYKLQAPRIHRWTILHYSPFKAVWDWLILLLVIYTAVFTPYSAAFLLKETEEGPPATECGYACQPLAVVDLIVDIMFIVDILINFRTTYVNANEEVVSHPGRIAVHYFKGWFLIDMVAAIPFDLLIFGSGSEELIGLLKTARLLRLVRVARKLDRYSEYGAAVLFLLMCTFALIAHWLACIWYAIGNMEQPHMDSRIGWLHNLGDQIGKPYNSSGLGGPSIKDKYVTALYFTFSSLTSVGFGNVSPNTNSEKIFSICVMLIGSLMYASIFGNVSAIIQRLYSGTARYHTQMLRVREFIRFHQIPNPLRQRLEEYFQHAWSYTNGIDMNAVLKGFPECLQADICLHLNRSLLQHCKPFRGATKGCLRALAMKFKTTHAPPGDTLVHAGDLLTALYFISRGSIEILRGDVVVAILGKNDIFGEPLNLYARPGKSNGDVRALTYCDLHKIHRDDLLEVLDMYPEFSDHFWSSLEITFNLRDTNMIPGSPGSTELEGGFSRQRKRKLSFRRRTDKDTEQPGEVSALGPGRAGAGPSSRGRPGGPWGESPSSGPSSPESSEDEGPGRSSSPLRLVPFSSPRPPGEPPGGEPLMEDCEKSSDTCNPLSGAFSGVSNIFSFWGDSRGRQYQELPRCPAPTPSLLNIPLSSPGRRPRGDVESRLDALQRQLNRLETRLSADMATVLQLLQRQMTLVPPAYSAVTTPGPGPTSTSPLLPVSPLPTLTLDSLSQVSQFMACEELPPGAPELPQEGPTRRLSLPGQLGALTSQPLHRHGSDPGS
`COc1ccc2cc1Oc1ccc(cc1)C[C@H]1c3c(cc4c(c3Oc3cc5c(cc3OC)CCN(C)[C@@H]5C2)OCO4)CCN1C` [Cepharanthine] was tested, and the IC50 was 10.3 µM. Compound `CN(C)CCCN1c2ccccc2Sc2ccccc21` [Promazine hydrochloride] has an IC50 of 9.52 µM. Work on `CCCCCCCCCCCCCCCCCC[N+](C)(C)Cc1ccccc1` [N,N-Dimethyl-N-benzyl-N-octadecylammonium chloride] yielded an IC50 of 4.41 µM. With `CC(C)(C)c1cc(C(C)(C)C)c(O)c(C(C)(C)C)c1` [2,4,6-Tris(tert-butyl)phenol] the IC50 was 17.4 µM. `CC(C)Oc1cc(-n2nc(C(C)(C)C)oc2=O)c(Cl)cc1Cl` [Oxadiazon] was tested, and the IC50 was 44.7 µM. Compound `CCCCCCCCOCCCN` [3-(Octyloxy)propan-1-amine] has an IC50 of 43.6 µM. `CCN(CC)CCN1C(=O)CN=C(c2ccccc2F)c2cc(Cl)ccc21` [Flurazepam] gave an IC50 of 3.79 µM. For `COc1ccc(CN(CCN(C)C)c2ccccn2)cc1` [Pyrilamine maleate], the IC50 was 20.9 µM. In the case of `CCC(C)(NC(=O)c1cc(Cl)c(C)c(Cl)c1)C(=O)CCl` (stereo not drawn) [Zoxamide], the IC50 is reported as 39.1 µM. Work on `CC[C@]12CCCN3CCc4c(n(c5ccccc45)C(=O)C1)[C@@H]32` [(-)-Eburnamonine] yielded an IC50 of 1.9 µM. `Cc1ccc(O)c(C(=O)c2ccccc2)c1` [2-Hydroxy-5-methylbenzophenone] was tested, and the IC50 was 35 µM. `CCN(CC)CCNc1ccc(CO)c2sc3ccccc3c(=O)c12` [Hycanthone] showed an IC50 of 10.7 µM. `BrC(Br)C(Br)(Br)Br` [Pentabromoethane] gave an IC50 of 49.3 µM. For `O=C(NC1CCN(CCc2c[nH]c3ccccc23)CC1)c1ccccc1` [Indoramin hydrochloride], the IC50 was 4.42 µM. Compound `Cc1cccc(Oc2ccccc2)c1` [1-Methyl-3-phenoxybenzene] has an IC50 of 23.9 µM. `CC(C)(C)C1(CCc2ccc(Cl)cc2)CO1` (stereo not drawn) [2-(2-(4-Chlorophenyl)ethyl)-2-(1,1-dimethylethyl)oxirane] gave an IC50 of 23.2 µM. With `CN(C)C(=O)C1(N2CCCCC2)CCN(CC[C@@]2(c3ccc(Cl)c(Cl)c3)CN(C(=O)c3ccccc3)CCO2)CC1` [SSR 241586 HCl] the IC50 was 9.49 µM. For `CSCCCN=C=S` [3-(Methylthio)propyl isothiocyanate], the IC50 was 36.7 µM. Compound `O[Si](c1ccccc1)(c1ccccc1)c1ccccc1` [Triphenylsilanol] has an IC50 of 21.9 µM. `CCN(CC)c1nc(C)cc(OP(=S)(OC)OC)n1` [Pirimiphos-methyl] was tested, and the IC50 was 50.9 µM. `c1ccc(CSCc2ccccc2)cc1` [Benzyl sulfide] showed an IC50 of 47 µM. `CCc1ccc2c(c1)C(=O)c1ccccc1C2=O` [2-Ethylanthraquinone] was tested, and the IC50 was 24.5 µM. `CCN(CC)CCOc1ccccc1C(=O)CCc1ccccc1` [Etafenone] was tested, and the IC50 was 3.25 µM. For `C=CC(C)(CCC=C(C)C)OC(=O)c1ccccc1` (stereo not drawn) [Linalyl benzoate], the IC50 was 20.3 µM. `CCCCCC1Nc2cc(C(F)(F)F)c(S(N)(=O)=O)cc2S(=O)(=O)N1` (stereo not drawn) [Penflutizide] showed an IC50 of 23 µM. In the case of `Clc1cc(Cl)c2c(c1)N=C1CCCCCN1C2` [1,3-Dichloro-6,7,8,9,10,12-hexahydroazepino[2,1-b]quinazoline hydrochloride (1:1)], the IC50 is reported as 12.5 µM. `O=C(N[C@H](c1ccccc1)[C@@H]1CN2CCC1CC2)c1c(Cl)ccc(C(F)(F)F)c1Cl` [SSR 103800] was tested, and the IC50 was 30.2 µM. `Cc1ccc(C=C2C(=O)C3(C)CCC2C3(C)C)cc1` (stereo not drawn) [Enzacamene] showed an IC50 of 30.7 µM. `CN1C[C@H](C(=O)N[C@]2(C)O[C@@]3(O)[C@@H]4CCCN4C(=O)[C@H](Cc4ccccc4)N3C2=O)C[C@@H]2c3cccc4[nH]cc(c34)C[C@H]21` [Dihydroergotamine] was tested, and the IC50 was 19 µM. With `CC1(CN2CCC(n3c(=O)[nH]c4ccccc43)CC2)OCc2ccccc2-n2cccc21` (stereo not drawn) [Zaldaride] the IC50 was 8.82 µM. `c1ccc(CN(CC2=NCCN2)c2ccccc2)cc1` [Antazoline hydrochloride] was tested, and the IC50 was 15.7 µM. `CN(C)c1ccc(C(=O)c2ccc(N(C)C)cc2)cc1` [Bis(4-(dimethylamino)phenyl)methanone] showed an IC50 of 57.1 µM. `O=C1OC2(c3ccccc31)c1ccc(O)c(Br)c1Oc1c2ccc(O)c1Br` [C.I. Solvent Red 72] gave an IC50 of 34.7 µM. In the case of `CCC(C)(C)c1ccc(CC(C)CN2C[C@@H](C)O[C@@H](C)C2)cc1` (stereo partly drawn) [Amorolfine], the IC50 is reported as 9.16 µM. For `CCCCCCCCCCCCCCCCCC[N+](C)(C)C` [N,N,N-Trimethyloctadecan-1-aminium chloride], the IC50 was 17.4 µM. `CC(CC(C#N)(c1ccccc1)c1ccccc1)N(C)C` (stereo not drawn) [4-Dimethylamino-2,2-diphenylvaleronitrile] gave an IC50 of 29.6 µM. `CC(C)(C)C(O)/C(=C\c1ccc(Cl)cc1Cl)n1cncn1` (stereo not drawn) [Diniconazole] gave an IC50 of 61.6 µM. For `Cc1c([N+](=O)[O-])cc2c(c1[N+](=O)[O-])C(C)(C)CC2(C)C` [1,1,3,3,5-Pentamethyl-4,6-dinitro-2,3-dihydro-1H-indene], the IC50 was 16.7 µM. With `CCN1CCCC(OC(=O)C(c2ccccc2)c2ccccc2)C1` (stereo not drawn) [Crapinon] the IC50 was 5.35 µM. Compound `Cc1cc(CCN2CCN(c3nsc4ccccc34)CC2)cc2c1NC(=O)CC2(C)C` [PD 0343701] has an IC50 of 16.1 µM. In the case of `Cc1c(OCC(F)(F)F)ccnc1C[S+]([O-])c1nc2ccccc2[nH]1` (stereo not drawn) [Lansoprazole], the IC50 is reported as 43.6 µM. With `OC(c1ccc(Cl)cc1)(c1cncnc1)c1ccccc1Cl` (stereo not drawn) [Fenarimol] the IC50 was 47.9 µM. For `ClC1=C(Cl)C2(Cl)C3C(Cl)C(Cl)CC3C1(Cl)C2(Cl)Cl` (stereo not drawn) [Chlordane], the IC50 was 30.9 µM. `CCOC(=O)COc1ccc2c(c1)CC(NCC(O)c1cccc(Cl)c1)CC2` (stereo not drawn) [SR58611] was tested, and the IC50 was 1.45 µM. `O=C(CCCN1CCC2(CC1)C(=O)NCN2c1ccccc1)c1ccc(F)cc1` [Spiperone] showed an IC50 of 1.76 µM. Compound `CCOP(=S)(Oc1cnc(C(C)(C)C)nc1)OC(C)C` (stereo not drawn) [Tebupirimfos] has an IC50 of 43.6 µM. In the case of `CC(C)(C)CC(C)(C)c1ccc(O)c(-n2nc3ccccc3n2)c1` [Octrizole], the IC50 is reported as 14.5 µM. `Cc1cc(C(C)(C)CC(C)(C)C)ccc1OCCOCC[N+](C)(C)Cc1ccccc1` [Methylbenzethonium chloride] gave an IC50 of 0.756 µM. Compound `O=C(N[C@H]1N=C(c2ccccc2F)c2cccc3c2N(CC3)C1=O)c1cc2ccccc2[nH]1` [Pranazepide] has an IC50 of 7.86 µM. Work on `COc1ccc(CN2CCN(C(c3ccc(F)cc3)c3ccc(F)cc3)CC2)c(OC)c1OC` [Lomerizine dihydrochloride] yielded an IC50 of 0.849 µM. With `Clc1cnc(Oc2ccc(Oc3ncc(Cl)cc3Cl)cc2)c(Cl)c1` [1,4-Bis[2-(3,5-dichloropyridyloxy)]benzene] the IC50 was 17.4 µM. Work on `CCCN(CCC)C(=O)CN` [C.I. Solvent Black 5] yielded an IC50 of 9.21 µM. `CCN(CC)CCOC(=O)C(c1ccccc1)c1ccccc1` [Adiphenine hydrochloride] gave an IC50 of 4.77 µM. Work on `[H]/N=C(\N/C(=N/[H])Nc1ccc(Cl)cc1)NC(C)C` [Proguanil hydrochloride] yielded an IC50 of 20.1 µM. `CN1Cc2c(N)cccc2C(c2ccccc2)C1` (stereo not drawn) [Nomifensine] showed an IC50 of 38.9 µM. For `CCCOC(C(=O)OC1CCN(C)CC1)(c1ccccc1)c1ccccc1` [Propiverine hydrochloride], the IC50 was 14.2 µM. For `Cc1ccc(O)c(-n2nc3ccccc3n2)c1` [2-(2H-Benzotriazol-2-yl)-4-methylphenol], the IC50 was 36 µM. `Clc1ccc(C(Cn2ccnc2)OCc2ccc(Sc3ccccc3)cc2)c(Cl)c1` (stereo not drawn) [Fenticonazole] was tested, and the IC50 was 12.5 µM. For `CCCN(CCc1cccs1)[C@H]1CCc2c(O)cccc2C1` [Rotigotine], the IC50 was 3.01 µM. In the case of `NC(=O)c1nc(-c2cccc(-c3cc(F)ccc3OCC(F)(F)C(F)(F)F)c2)n[nH]1` [Potassium 5-carbamoyl-3-[5'-fluoro-2'-(2,2,3,3,3-pentafluoropropoxy)-3-biphenylyl]-1,2,4-triazol-1-ide hydrate (1:1:1)], the IC50 is reported as 47.1 µM. In the case of `CC[N+]1(C)CCCC1` [1-Ethyl-1-methylpyrrolidinium iodide], the IC50 is reported as 19.5 µM. `N#Cc1ccc(CC(=NNC(=O)Nc2ccc(OC(F)(F)F)cc2)c2cccc(C(F)(F)F)c2)cc1` [Metaflumizone] gave an IC50 of 13.3 µM. Work on `CCOC(=O)C1=NN(c2ccc(Cl)cc2Cl)C(C)(C(=O)OCC)C1` (stereo not drawn) [Mefenpyr-diethyl] yielded an IC50 of 46.2 µM. `CCCC[P+](C)(CCCC)CCCC` [Tributylmethylphosphonium methyl sulfate] was tested, and the IC50 was 35.1 µM. `CCCCCNC(=N)N/N=C/c1c[nH]c2ccc(OC)cc12` [Tegaserod] was tested, and the IC50 was 9.16 µM. `CC(C(O)c1ccc(O)cc1)N1CCC(Cc2ccccc2)CC1` (stereo not drawn) [Ifenprodil] showed an IC50 of 7 µM. `CC[C@]12CCCN3CCc4c(n(c5ccccc45)[C@@](O)(C(=O)OC)C1)[C@@H]32` [Vincamine] showed an IC50 of 1.33 µM. `COc1ccnc(C[S+]([O-])c2nc3ccc(OC(F)F)cc3[nH]2)c1OC` (stereo not drawn) [Pantoprazole sodium] gave an IC50 of 49.3 µM. Compound `COc1ccc2c(c1OC)C(=O)O[C@@H]2[C@H]1c2cc3c(cc2CCN1C)OCO3` [Hydrastine] has an IC50 of 20.8 µM. `Cc1cc(-c2ccc(N=Nc3cc(S(=O)(=O)O)c4ccccc4c3N)c(C)c2)ccc1N=Nc1cc(S(=O)(=O)O)c2ccccc2c1N` [C.I. Direct Red 2] was tested, and the IC50 was 21.2 µM. With `CCN(C(=O)c1cc(C)cc(OC[C@H](C)Nc2ccncc2)c1)C(C)C` [GW473178E methyl benzene sulphonic acid] the IC50 was 15.9 µM. In the case of `N#Cc1ccc(CC(=O)c2cccc(C(F)(F)F)c2)cc1` [4-{2-Oxo-2-[3-(trifluoromethyl)phenyl]ethyl}benzonitrile], the IC50 is reported as 30.9 µM. Compound `CCC(=O)c1ccc2c(c1)N(CCCN(C)C)c1ccccc1S2` [Propionylpromazine hydrochloride] has an IC50 of 9.16 µM. In the case of `O=C(OC1CCCCC1)c1ccccc1C(=O)OC1CCCCC1` [Dicyclohexyl phthalate], the IC50 is reported as 23.1 µM. With `COc1ccc(-c2cc(C(F)F)nn2-c2ccc(S(N)(=O)=O)cc2)cc1F` [Deracoxib] the IC50 was 23.9 µM. `CCCc1ccc(OCC(=O)N2CCN(C(=O)COc3ccc(CCC)cc3OC)CC2)c(OC)c1` [Simetride] gave an IC50 of 1.4 µM. Compound `CCc1cc(Cc2cc(CC)cc(C(C)(C)C)c2O)c(O)c(C(C)(C)C)c1` [2,2'-Methylenebis(ethyl-6-tert-butylphenol)] has an IC50 of 17.4 µM. `CCOC(=O)Nc1ccc(NCc2ccc(F)cc2)nc1N` [Flupirtine maleate] gave an IC50 of 19 µM. `COC(=O)C1=C(C)NC(C)=C(C(=O)O[C@@H]2CCCN(Cc3ccccc3)C2)[C@@H]1c1cccc([N+](=O)[O-])c1` (racemic) [rac Benidipine hydrochloride] gave an IC50 of 12.5 µM. `CCc1cc(C(C)(C)C)c(O)c(C(C)(C)C)c1` [2,6-Di-tert-butyl-4-ethylphenol] gave an IC50 of 19.5 µM. For `CCN(CC)CCOC(=O)C(c1ccccc1)C1CCCCC1` (stereo not drawn) [Drofenine hydrochloride], the IC50 was 7.86 µM.

From paper PMC8869358, “High-Throughput Chemical Screening and Structure-Based Models to Predict hERG Inhibition” (Biology, 2022)
